The values below come from patent US20060116419A1, “Nf-kb inhibitors” (priority 2002, published 2006).

Molecules are shown by their SMILES.

One data set concerns the target T1, IKK-β (Homo sapiens, UniProt O14920).
T1 construct: GST; made in house
T1 sequence (O14920 1-756): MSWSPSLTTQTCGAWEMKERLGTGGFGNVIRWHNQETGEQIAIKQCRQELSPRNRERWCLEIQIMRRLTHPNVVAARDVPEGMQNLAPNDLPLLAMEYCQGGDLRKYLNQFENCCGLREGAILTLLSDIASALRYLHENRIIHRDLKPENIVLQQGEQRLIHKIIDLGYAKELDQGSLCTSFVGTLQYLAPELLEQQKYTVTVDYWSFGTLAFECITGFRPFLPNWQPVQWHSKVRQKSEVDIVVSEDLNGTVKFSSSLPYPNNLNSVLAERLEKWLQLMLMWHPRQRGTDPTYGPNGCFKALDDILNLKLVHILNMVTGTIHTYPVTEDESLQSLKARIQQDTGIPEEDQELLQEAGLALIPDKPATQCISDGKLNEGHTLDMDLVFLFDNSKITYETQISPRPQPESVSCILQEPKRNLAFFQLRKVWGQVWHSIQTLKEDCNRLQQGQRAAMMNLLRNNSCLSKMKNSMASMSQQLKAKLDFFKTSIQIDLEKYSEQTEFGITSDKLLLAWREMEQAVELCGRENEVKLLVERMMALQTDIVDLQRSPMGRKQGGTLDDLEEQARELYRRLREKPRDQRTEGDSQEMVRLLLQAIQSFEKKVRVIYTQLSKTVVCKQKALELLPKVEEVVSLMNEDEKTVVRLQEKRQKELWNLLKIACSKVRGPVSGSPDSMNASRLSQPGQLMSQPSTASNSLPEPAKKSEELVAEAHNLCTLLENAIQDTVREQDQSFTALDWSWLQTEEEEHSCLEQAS
Kind of data set: IKK-β kinase assay (phosphorylation of N-terminal fragment of IκB-α). It is filed as biochemical.

In the next data set the test system is IκB-α. Kind of data set: Degradation of IκB-α in cells activated with pro-inflammatory stimuli (Western blot). It is filed as cell-based. Particulars: human monocytes and other mammalian cells; activation with pro-inflammatory stimuli (e.g. TNF-α, LPS). As to the method:
NF-κB activity may also be measured in an electrophoretic mobility shift assay (EMSA) to assess the presence of NF-κB protein in the nucleus. The cells of interest are cultured to a density of 1×10^6/mL. The cells are harvested by centrifugation, washed in PBS without Ca^2+ and Mg^2+ and resuspended in PBS with Ca^2+ and Mg^2+ at 1×10^7 cells/mL. To examine the effect of compound on the activation of NF-κB, the cell suspensions are treated with various concentrations of drug or vehicle (DMSO, 0.1%) for 30 min. at 37° C. prior to stimulation with TNF-α (5.0 ng/mL) for an additional 15 min. Cellular and nuclear extracts are prepared follows. Briefly, at the end of the incubation period the cells (1×10^7 cells) are washed 2× in PBS without Ca^2+ and Mg^2+. The resulting cell pellets are resuspended in 20 uL of Buffer A (10 mM Hepes (pH 7.9), 10 mM KCl, 1.5 mM MgCl2, 0.5 mM dithiothreitol (DTT) and 0.1% NP-40) and incubated on ice for 10 min. […] All samples are stored at −80° C. until analyzed. The protein concentration of the extracts is determined according to the method of Bradford (Bradford, 1976) with BioRad reagents.
The effect of compounds on the phosphorylation of IκB may be monitored in a Western blot. […] Immunoreactive bands are detected using the Enchanced Chemiluminescence (ECL) assay system (Amersham Corp., Arlington Heights, Ill.).
(Immunoblotting shows a protein as a band on a membrane.)

For the next data set, the system named is NF-κB. Briefly: Nuclear translocation of NF-κB in activated cells (EMSA). It is filed as cell-based. To be noted: human monocytes and other mammalian cells; activation with pro-inflammatory stimuli (e.g. TNF-α, LPS). As to the method: NF-κB activity may also be measured in an electrophoretic mobility shift assay (EMSA) to assess the presence of NF-κB protein in the nucleus. The cells of interest are cultured to a density of 1×10^6/mL. The cells are harvested by centrifugation, washed in PBS without Ca^2+ and Mg^2+ and resuspended in PBS with Ca^2+ and Mg^2+ at 1×10^7 cells/mL. To examine the effect of compound on the activation of NF-κB, the cell suspensions are treated with various concentrations of drug or vehicle (DMSO, 0.1%) for 30 min. at 37° C. prior to stimulation with TNF-α (5.0 ng/mL) for an additional 15 min. Cellular and nuclear extracts are prepared follows. Briefly, at the end of the incubation period the cells (1×10^7 cells) are washed 2× in PBS without Ca^2+ and Mg^2+. The resulting cell pellets are resuspended in 20 uL of Buffer A (10 mM Hepes (pH 7.9), 10 mM KCl, 1.5 mM MgCl2, 0.5 mM dithiothreitol (DTT) and 0.1% NP-40) and incubated on ice for 10 min. The nuclei are pelleted by microcentrifugation at 3500 rpm for 10 min at 4° C. […] All samples are stored at −80° C. until analyzed. The protein concentration of the extracts is determined according to the method of Bradford (Bradford, 1976) with BioRad reagents.
The effect of compounds on transcription factor activation is assessed in an electrophoretic mobility shift assay (EMSA) using nuclear extracts from treated cells as described above. […]
(Mobility shift assays separate free from complexed probe on a gel.)

The test system of data set [1] is LPS-stimulated human monocytes. Kind of data set: Pro-inflammatory mediator production from LPS-stimulated human monocytes. The data set is classed as cell-based. As to the method: (§1) Effect of IKK-β inhibition on human monocyte stimulated eicosanoid and cytokine production was assessed as follows: Monocytes were isolated from heparinized whole blood by double gradient centrifugation as previously described. Isolated monocyte enriched PBMCs were then adhered to 24 well culture plates at 2×10^6 cells/mL in RPMI 1640 10% FBS (Hyclone, Logan, Utah) for 2 h. to further enrich the monocyte population. The media was then removed, cells washed once with RPMI 1640, and 1 mL RPMI 1640 10% FBS was added to the wells. Test compounds are added to the wells with a final vehicle concentration of 0.05% DMSO. Monocytes were activated by the addition of 200 ng/mL endotoxin (LPS; E. coli serotype 026:B6)(Sigma, St. Louis, Mo.) and incubated for 24 hrs. Cell-free supernates were analyzed by ELISA for TNF-α (EIA developed at SB), PGE2 (Cayman Chemical, Ann Arbor, Mich.), and IL-8 and IL-6 Biosource International, Camarillo, Calif.). Viability of the cells was determined by trypan blue exclusion.

For data set [2], the system named is human primary synovial fibroblasts. Briefly: Mediator production by stimulated human primary synovial fibroblasts. The data set is classed as cell-based. As to the method: The effect of IKK-β inhibitors on primary synovial fibroblast mediator production was assesses as follows: Primary cultures of human RSF were obtained by enzymatic digestion of synovium obtained from adult patients with rheumatoid arthritis as previously described (Roshak et al., 1996b). Cells were cultured in Earl's Minimal Essential Medium (EMEM) which contained 10% fetal bovine serum (FBS), 100 units/ml penicillin and 100 μg/ml streptomycin (GIBCO, Grand Island, N.Y.), at 37° C. and 5% CO2. Cultures were used at passages 4 through 9 in order to obtain a more uniform type B fibroblast population. For some studies, fibroblasts were plated at 5×10^4 cells/mL in 16 mm (diameter) 24 well plates (Costar, Cambridge, Mass.). Cells (70-80% confluence) were exposed to IL-1β (1 ng/mL) (Genzyme, Cambridge, Mass.) for the designated time. Drugs in DMSO vehicle (1%) were added to the cell cultures 15 minutes prior to the addition of IL-1. Studies were conducted 3-4 times using synovial cells from different donors. RSF cellular extracts were prepared from cells treated as described above. Briefly, human RSF were removed by trypsin/EDTA, washed, and harvested by centrifugation. Cellular extracts were prepared as previously described (Dignam et al., 1983; Osborn, et al., 1989). Briefly, at the end of the incubation period the cells (1×10^7 cells) were washed 2× in PBS without Ca^2+ and Mg^2+. […]

The nature of data set [3]: Oral bioavailability in rat. It is filed as in vivo.
Data set [4] is described as follows: Oral bioavailability in mouse. It is filed as in vivo.
Data set [5] can be described thus: In vivo DMPK profile in preclinical species. Particulars: preclinical species tested, compared with analog lacking the 4′-F group.
The test system of the next data set is IL-8 production. Kind of data set: Inhibition of IL-8 production through inhibition of NF-κB. It is filed as cell-based. To be noted: through the inhibition of NF-κB. As to the method:
as §1

Method for IKK-β: IKK-β was expressed as a GST-tagged protein, and its activity was assessed in a 96-well scintillation proximity assay (SPA). Briefly, IKK-β was diluted in assay buffer as described above (20 nM final), with various concentrations of compound or DMSO vehicle, 240 nM ATP and 200 nCi [γ-^33P]-ATP (10 mCi/mL, 2000 Ci/mmol; NEN Life Science Products, Boston, Mass.). The reaction was started with the addition of a biotinylated peptide comprising amino acids 15-46 of IκB-α (American Peptide) to a final concentration of 2.4 μM, in a total volume of 50 uL. The sample incubated for one hour a 30° C., followed by the addition of 150 uL of stop buffer (PBS w/o Ca^2+, Mg^2+, 0.1% Triton X-100 (v/v), 10 mM EDTA) containing 0.2 mg streptavidin-coated SPA PVT beads (Amersham Pharmacia Biotech, Piscataway, N.J.). The sample was mixed, incubated for 10 min. at room temperature, centrifuged (1000×g, 2 minutes), and measured on a Hewlett-Packard TopCount.

Consider `NC(=O)Nc1sc(-c2ccc(F)cc2)cc1C(N)=O` [Formula I, 5-(4-fluoro-phenyl)-2-ureido-thiophene-3-carboxylic acid amide], for which, on IKK-β, the “inhibition of phosphorylation of the N-terminal fragment of IκB-α by IKK-β” value is given as “inhibit the phosphorylation of the N-terminal fragment of IκB-α by IKK-β”. For the same molecule, the “IKK-2 inhibitory activity relative to the analog lacking the 4′-F group” value at IKK-β (compared with analog lacking the 4′-F group) is listed as “comparable IKK-2 inhibitory activity”. Moreover, the “degradation of IκB-α” value in the data set on IκB-α is listed as “blocks the degradation of IκB-α”. For the same molecule, the “nuclear translocation of NF-κB” value with NF-κB is given as “blocks”. The pro-inflammatory mediator production result in data set [1] and in data set [2] was “inhibits pro-inflammatory mediator production” each time. Moreover, the oral bioavailability entry in data set [3] and in [4] was “orally bioavailable” each time. In [5], the “DMPK profile relative to the analog lacking the 4′-F group” value is recorded as “significantly improved DMPK profile”. In addition, the “inhibition of IL-8 production” value in the data set on IL-8 production is recorded as “has been demonstrated”.
